Source: paper PMC4791841, “Nanomolar Inhibitors of Trypanosoma brucei RNA Triphosphatase” (mBio, 2016)
pIC50, pKi: −log10 of the molar value. Where two headings read alike, the source gives them in different places.

How the values were obtained:
TbCet1 [1] = biological target: T1, TbCet1 (Trypanosoma brucei brucei, UniProt Q582T2); assay: colorimetric malachite green HTS assay of Pi release from ATP by TbCet1
T1 sequence (Q582T2 1-253): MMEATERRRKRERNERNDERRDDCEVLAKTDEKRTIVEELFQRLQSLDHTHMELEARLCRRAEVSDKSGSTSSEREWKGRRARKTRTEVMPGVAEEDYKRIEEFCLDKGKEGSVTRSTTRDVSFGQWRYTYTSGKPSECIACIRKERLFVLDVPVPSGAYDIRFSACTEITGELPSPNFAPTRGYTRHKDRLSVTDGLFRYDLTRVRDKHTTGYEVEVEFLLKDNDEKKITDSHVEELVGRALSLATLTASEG

TbCet1 [2] = biological target: T1, TbCet1; assay: TLC assay for 32Pi release from [γ-32P]ATP, TbCet1; conditions: 2.2 nM TbCet1, 0.2 mM ATP, 2 mM Mn2+, 10 min 37°C
MimiCE = biological target: T2, MimiCE (Acanthamoeba polyphaga mimivirus, UniProt Q5UQX1); assay: biochemical; assay type: biochemical; conditions: for IC50/IC50 TbCet1, MimiCE: ratio in parentheses;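 as to all read-outs here: mimivirus capping enzyme triphosphatase ATPase reaction, radiolabeled ATP hydrolysis to Pi quantified by TLC after 10 min, normalized to no-inhibitor control with 5% DMSO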
T2 construct: the N-terminal RTPase domain (amino acids [aa] 1 to 237) of mimivirus capping enzyme (MimiCE); HisSmt3 (N, cleaved yes); made in house; host or cells: Escherichia coli
T2 sequence (Q5UQX1 1-237): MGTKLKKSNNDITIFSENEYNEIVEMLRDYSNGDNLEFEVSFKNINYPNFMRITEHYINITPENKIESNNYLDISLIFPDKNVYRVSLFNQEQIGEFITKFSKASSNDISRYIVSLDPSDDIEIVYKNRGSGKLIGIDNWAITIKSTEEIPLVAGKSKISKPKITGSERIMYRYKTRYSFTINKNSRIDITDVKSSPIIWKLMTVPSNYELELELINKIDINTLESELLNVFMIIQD

procyclic T. brucei = assay: cell proliferation of cultured procyclic T. brucei; assay type: cell-based, Trypanosoma brucei; conditions: 10 µM; preliminary studies, data not shown
Lef4 = biological target: T3, Lef4 (Autographa californica nuclear polyhedrosis virus, UniProt P41477); assay: TLC assay for 32Pi release from [γ-32P]ATP, Lef4; assay type: biochemical, Autographa californica nucleopolyhedrovirus (AcNPV); conditions: for IC50/IC50 TbCet1, Lef4: ratio in parentheses;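 as to all read-outs here: Lef4 RNA triphosphatase cleaving radiolabelled ATP over 10 min at 37°C, hydrolysis set relative to inhibitor-free 5% DMSO controls, comparisons made against TbCet1 tested the same way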
T3 construct: the N-terminal RTPase domain (aa 1 to 236) of AcNPV Lef4 capping enzyme; HisSmt3 (N, cleaved yes); made in house; host or cells: Escherichia coli
T3 sequence (P41477 1-236): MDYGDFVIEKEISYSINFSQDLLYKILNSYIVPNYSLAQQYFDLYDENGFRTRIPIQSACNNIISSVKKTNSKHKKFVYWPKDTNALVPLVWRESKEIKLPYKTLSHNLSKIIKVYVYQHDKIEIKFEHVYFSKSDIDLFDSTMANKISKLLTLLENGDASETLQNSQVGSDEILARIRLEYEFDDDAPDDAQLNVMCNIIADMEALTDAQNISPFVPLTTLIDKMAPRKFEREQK

SceCet1 = biological target: T4, SceCet1 (Saccharomyces cerevisiae, UniProt O13297); assay: TLC assay for 32Pi release from [γ-32P]ATP, SceCet1; assay type: biochemical; conditions: for IC50/IC50 TbCet1, SceCet1: ratio in parentheses
T4 construct: C-terminal catalytic domain (aa 241 to 539) of S. cerevisiae RTPase (SceCet1); made in house; host or cells: Escherichia coli
T4 sequence (O13297 241-539): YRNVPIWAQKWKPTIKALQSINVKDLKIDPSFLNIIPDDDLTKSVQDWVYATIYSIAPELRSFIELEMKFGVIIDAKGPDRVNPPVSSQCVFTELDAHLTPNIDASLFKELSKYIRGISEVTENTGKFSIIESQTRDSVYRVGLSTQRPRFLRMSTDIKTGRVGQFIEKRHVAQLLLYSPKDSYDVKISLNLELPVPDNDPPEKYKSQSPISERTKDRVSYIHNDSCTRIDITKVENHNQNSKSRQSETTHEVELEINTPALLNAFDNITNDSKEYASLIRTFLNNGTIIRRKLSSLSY

CthTTM [3] = biological target: T5, CthTTM (Acetivibrio thermocellus, UniProt A3DIJ8); assay: TLC assay for 32Pi release from [γ-32P]ATP, CthTTM; assay type: biochemical, Clostridium thermocellum; conditions: for IC50/IC50 TbCet1, CthTTM: ratio in parentheses
T5 sequence (A3DIJ8 1-156): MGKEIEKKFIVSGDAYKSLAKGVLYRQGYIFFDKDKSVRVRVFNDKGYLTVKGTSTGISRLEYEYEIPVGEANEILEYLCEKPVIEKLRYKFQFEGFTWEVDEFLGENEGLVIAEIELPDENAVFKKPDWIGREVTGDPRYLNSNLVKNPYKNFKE

[4] = test system: Trypanosoma cruzi amastigotes; set-up: method as in PMID 25880257; conditions: cited from earlier work
Leishmania amazonensis = test system: Leishmania amazonensis; set-up: method as in PMID 25880257; conditions: cited from earlier work
TbCet1 [5] = biological target: T1, TbCet1; set-up: Recombinant full-length T. brucei RTPase TbCet1; HisSmt3 (N, cleaved yes); made in house; host or cells: Escherichia coli; method as in PMID 14525979; conditions: ATP substrate Km 25 µM; read-out: Ki, competitive inhibitor of TbCet1; cited from earlier work
CthTTM [6] = assay: TLC assay for 32Pi release from [γ-32P]ATP, CthTTM; assay type: biochemical, Clostridium thermocellum
[7] = 7 nM MimiCE, 37°C, read-out: IC50 MimiCE
[8] = 50 nM Lef4, 37°C, read-out: IC50 Lef4
[9] = 500 nM CthTTM, 37°C, read-out: IC50 CthTTM
[10] = read-out: IC50 by HTS assay, colorimetric phosphate release from ATP, Mn2+
[11] = read-out: IC50 TbCet1 by 32P assay

Molecule	pIC50 (TbCet1 [1])	pIC50 (TbCet1 [2]; IC50 TbCet1 by 32P assay)	pIC50 (MimiCE; [7])	IC50/IC50 TbCet1, MimiCE (MimiCE)	IC50/IC50 TbCet1, Lef4 (Lef4)	pIC50 (SceCet1)	IC50/IC50 TbCet1, SceCet1 (SceCet1)	IC50/IC50 TbCet1, CthTTM (CthTTM [3])	pIC50 (Lef4)	further results
O=C(/C=C/c1ccc(O)c(O)c1)O[C@H](Cc1ccc(O)c(O)c1)C(=O)O [Compound 3A, rosmarinic acid]	7.30	6.92								
O=c1c(O)c(-c2cc(O)c(O)c(O)c2)oc2cc(O)cc(O)c12 [Compound 4B, myricetin]	6.64	6.44								
O=C(/C=C/c1ccc(O)c(O)c1)O[C@@H]1C[C@](OC(=O)/C=C/c2ccc(O)c(O)c2)(C(=O)O)C[C@@H](OC(=O)/C=C/c2ccc(O)c(O)c2)[C@H]1OC(=O)/C=C/c1ccc(O)c(O)c1 [Compound 1A, 1,3,4,5-O-tetracaffeoylquinic acid]	7.70	7.89	5.85	108	438	5.15	546	846		fold lower potency against MimiCE than against TbCet1 (MimiCE): 110 fold; effect on cell proliferation (procyclic T. brucei): no effect; fold lower potency against Lef4 than against TbCet1 (Lef4): 440 fold; pIC50 (Lef4; [8]): 5.24; fold lower potency against SceCet1 than against TbCet1 (SceCet1): 550 fold; fold lower potency against CthTTM than against TbCet1 (CthTTM [3]): 850 fold; pIC50 (CthTTM [3]; [9]): 4.96
Oc1cc(O)c2c(c1)O[C@H](c1ccc(O)c(O)c1)[C@H](O)C2 [Compound 4C, epicatechin]	6.59	6.60	5.00	40	136	5.06	35	104	4.47	pIC50 (CthTTM [3]; [9]): 4.59
O=C(/C=C/c1ccc(O)c(O)c1)O[C@@H]1CC(O)(C(=O)O)C[C@@H](OC(=O)/C=C/c2ccc(O)c(O)c2)C1O (some centres unmarked) [Compound 1B, 3,5-O-dicaffeoylquinic acid]										pIC50 (TbCet1 [1]; [10]): 7.40; activity against Trypanosoma cruzi amastigotes [4]: inactive; pIC50 (TbCet1 [2]; [11]): 7.15; activity against Leishmania amazonensis (Leishmania amazonensis): inactive
O=C(CCO[C@@H]1O[C@H](CO)[C@@H](O)[C@H](O)[C@H]1O)c1ccc(O)cc1 [Compound 2B, 3-O-(4-hydroxyphenylpropanone)-1-glucopyranoside]				182	227		62	44		fold lower potency against MimiCE than against TbCet1 (MimiCE): 180 fold; pIC50 (MimiCE; read-out: IC50 MimiCE, 7 nM MimiCE, 37°C): 3.92; pIC50 (TbCet1 [1]; [10]): 5.96; pIC50 (TbCet1 [2]; [11]): 6.18; pIC50 (Lef4; [8]): 3.82; fold lower potency against SceCet1 than against TbCet1 (SceCet1): 62 fold; pIC50 (SceCet1; read-out: IC50 SceCet1, 25 nM SceCet1, 30°C): 4.39; fold lower potency against CthTTM than against TbCet1 (CthTTM [3]): 44 fold; pIC50 (CthTTM [3]; read-out: IC50 CthTTM, 500 nM CthTTM, 37°C): 4.54
O=C(/C=C/c1ccc(O)c(O)c1)O[C@@H]1[C@H](OC(=O)/C=C/c2ccc(O)c(O)c2)C[C@]2(OC(=O)/C=C/c3ccc(O)c(O)c3)C[C@H]1OC2=O [Compound 6A, 1,4,5-tricaffeoylquinide]		6.92		17	22	5.70	17	53		pIC50 (MimiCE): 5.70; pIC50 (Lef4; [8]): 5.59; pIC50 (CthTTM [3]): 5.19
O=P(O)(O)OP(=O)(O)OP(=O)(O)O [Tripolyphosphate]										pKi (TbCet1 [5]): 5.85
pentagalloylgalloylglucose [tannic acid]										pIC50 (TbCet1 [1]; read-out: IC50 TbCet1, small-scale test library screens performed here and previously [37]): 7.22
O=C(C=Cc1ccccc1)OC1C=C(C(=O)O)CC(OC(=O)C=Cc2ccccc2)C1OC(=O)C=Cc1ccccc1 (centres unmarked) [Compound 6B, 3,4,5-tricinnamoylshikimic acid]			4.72	13	7					pIC50 (TbCet1 [2]; [11]): 5.82; pIC50 (Lef4; [8]): 5.00; activity against SceCet1 (in words) (SceCet1): inactive; pIC50 (SceCet1; 25 nM SceCet1, 30°C, read-out: IC50 SceCet1): < 3.30; fold lower potency against CthTTM than against TbCet1 (CthTTM [6]): 100 fold; pIC50 (CthTTM [6]; 500 nM CthTTM, 37°C): 3.82; IC50/IC50 TbCet1, CthTTM (CthTTM [6]; ratio in parentheses): 100
O=C(OC[C@H]1O[C@@H](OC(=O)c2cc(O)c(O)c(O)c2)[C@H](OC(=O)c2cc(O)c(O)c(O)c2)[C@@H](OC(=O)c2cc(O)c(O)c(O)c2)[C@@H]1OC(=O)c1cc(O)c(O)c(O)c1)c1cc(O)c(O)c(O)c1 [Compound 2A, pentagalloylglucose]	7.40	7.34							4.23	pIC50 (MimiCE): 5.29; pIC50 (SceCet1; read-out: IC50 SceCet1): 5.49
O=C(O)C1OC(Oc2c(-c3ccc(O)c(O)c3)oc3cc(O)cc(O)c3c2=O)C(O)C(O)C1O (centres unmarked) [Compound 4A, miquelianin]	6.74	6.74	4.72	106	161	4.37	239	133	4.54	pIC50 (CthTTM [3]): 4.62
O=C(O)/C=C/c1ccc(O)c(O)c1 [Compound 3B, caffeic acid]		4.54				< 3.30			4.12	pIC50 (MimiCE): < 3.30; activity against MimiCE (in words) (MimiCE): inactive; pIC50 (CthTTM [3]; [9]): 3.51
O=C(CCO)c1ccc(O)cc1 [Compound 5, 3-hydroxy-1-(4-hydroxyphenyl)propan-1-one]	6.20	6.19	4.08	131	250	< 3.30		14	3.80	activity against SceCet1 (in words) (SceCet1): no effect; pIC50 (CthTTM [3]; [9]): 5.04
